Source: patent US5266571A, “Treatment of hemorrhoids with 5-HT2 antagonists” (priority 1992, dated 1993)
Counter-ions that a name gives are not always drawn. Like-named read-outs stand apart in the source and are kept apart here.

What was measured:
Dopamine-2 = Dopamine-2 (Homo sapiens, UniProt P14416); assay: Receptor Blocking Profile, Dopamine-2; assay type: binding
5-HT2 = 5-HT2 (Homo sapiens, UniProt P28223); assay: Receptor Blocking Profile: inhibition of labeled 5-HT binding, 5-HT2
Procedure: (§1) The receptor blocking profile is determined as follows: Labeled 5-HT is mixed with a purified preparation containing the receptor. The amount of labeled material that attaches itself to the receptor and cannot be washed off is calculated. In a series of other similar tubes, the same quantity of labeled 5-HT is mixed with increasing concentrations of the antagonist which will antagonize the binding of 5-HT to the receptor. Decreasing quantities of the labeled material will bind to the receptor. The concentration of the antagonist that inhibits the binding by 50% is then calculated.

5-HT1 = assay: Receptor Blocking Profile, 5-HT1; assay type: binding; settings: read-out: Receptor Blocking Profile IC-50, 5-HT1
Procedure: (§2) The IC- 50 is the concentration that inhibits agonist binding to the
(§3) receptor by 50%. The better the blocker a compound is, the smaller is the
(§4) concentration thereof needed to block the receptor, i.e., the smaller the
(§5) IC-50, the better receptor blocker or antagonist the compound is.
as §1

Alpha-receptor = assay: Receptor Blocking Profile, Alpha-receptor; assay type: binding; settings: read-out: Receptor Blocking Profile IC-50, Alpha-receptor
Procedure: as §2, §3, §4, §5, §1

human colon veins = assay: Activity against 5-HT on the human colon in vitro (contraction of human colonic vein rings); settings: for blocking contractile effects of 5-HT on human colon rings, correlation with receptor blocking potencies: human colon rings in vitro, compared with the receptors tested; for IC50: read-out: IC-50, activity against 5-HT on the human colon in vitro
Procedure: Human colonic vein rings were isolated from discarded human colon tissue following surgery (colostomy). The rings were prepared immediately after surgery and were suspended in buffered physiological saline. The contractions produced by the rings in response to the addition of 5-HT in vitro were measured. The effects of three selected 5-HT2 antagonist compounds on antagonizing 5-HT contractile effects were also determined.
This activity is determined as follows: Rings of human colon veins are prepared and hung in a tissue bath. The contractions of the rings are monitored. Adding 5-HT causes the rings to contract. Pre-addition of increasing concentrations of the antagonist result in lesser contractions. The amount of antagonist causing a 50% inhibition of the contractions is then calculated.

5-HT2 receptor [1] = settings: background statement; cited from earlier work
5-HT2 receptor [2] = settings: background statement; cited from earlier work; remark: listed apart in the source
[3] = read-out: Receptor Blocking Profile IC-50, Dopamine-2
[4] = human colon vein rings, antagonist pre-added, 5-HT-induced contraction

Chain of Dopamine-2 (P14416 whole entry): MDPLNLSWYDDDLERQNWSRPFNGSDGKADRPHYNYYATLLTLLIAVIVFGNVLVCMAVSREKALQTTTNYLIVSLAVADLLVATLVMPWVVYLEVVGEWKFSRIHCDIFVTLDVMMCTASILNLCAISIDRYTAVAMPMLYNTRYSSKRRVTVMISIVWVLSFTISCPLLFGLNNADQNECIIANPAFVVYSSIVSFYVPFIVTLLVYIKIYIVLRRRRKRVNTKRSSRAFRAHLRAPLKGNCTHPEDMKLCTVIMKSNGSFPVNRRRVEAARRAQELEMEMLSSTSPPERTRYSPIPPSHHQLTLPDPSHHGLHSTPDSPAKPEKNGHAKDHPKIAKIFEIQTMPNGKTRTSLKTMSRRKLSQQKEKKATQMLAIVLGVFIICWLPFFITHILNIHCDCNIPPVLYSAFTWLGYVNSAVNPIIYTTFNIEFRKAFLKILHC
Chain of 5-HT2 (P28223 whole entry, species assumed): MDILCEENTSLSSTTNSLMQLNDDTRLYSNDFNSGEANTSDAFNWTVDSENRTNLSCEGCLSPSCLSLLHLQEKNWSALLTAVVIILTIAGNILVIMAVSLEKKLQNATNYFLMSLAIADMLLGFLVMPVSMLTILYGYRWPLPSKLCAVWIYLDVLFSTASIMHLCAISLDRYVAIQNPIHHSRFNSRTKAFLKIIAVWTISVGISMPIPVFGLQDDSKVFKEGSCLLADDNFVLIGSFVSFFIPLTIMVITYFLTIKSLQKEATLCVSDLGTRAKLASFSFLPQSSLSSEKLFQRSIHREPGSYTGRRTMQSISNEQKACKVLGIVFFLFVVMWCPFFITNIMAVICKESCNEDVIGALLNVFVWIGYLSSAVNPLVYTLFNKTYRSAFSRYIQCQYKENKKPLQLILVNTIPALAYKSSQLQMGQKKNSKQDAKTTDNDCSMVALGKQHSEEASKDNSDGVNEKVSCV

| Structure (SMILES) | IC50 (Dopamine-2; [3]) [nM] | IC50 (5-HT2) [nM] | IC50 (5-HT1) [nM] | IC50 (Alpha-receptor) [nM] | blocking contractile effects of 5-HT on human colon rings, correlation with receptor blocking potencies (human colon veins) | IC50 (human colon veins; [4]) [nM] | IC50 (Dopamine-2) [nM] | IC50 (5-HT2; read-out: Receptor Blocking Profile IC-50, 5-HT2, displacement of labeled 5-HT) [nM] | IC50 (human colon veins; Homo sapiens) [nM] | inhibition of modulation of phosphatidylinositol turnover by 5-HT2 receptor (5-HT2 receptor [1]) | antagonism of binding of 5-HT to 5-HT2 receptor (5-HT2 receptor [2]) |
| --- | --- | --- | --- | --- | --- | --- | --- | --- | --- | --- | --- |
| CN1CCCCC1CCc1ccccc1NC(=O)C=Cc1ccccc1.Cl (centres unmarked) [Compound I, 2'[2-(1-methyl-2-piperidyl)ethyl] cinnamanilide hydrochloride] | > 1000 | 3.4 | 22000 | > 1000 | correlated best with their 5-HT2 blocking potencies | 2 |  |  |  |  |  |
| CCc1nn(CCCN2CCN(c3cccc(Cl)c3)CC2)c(=O)n1CCOc1ccccc1 [Compound II, 2-[3-[4-(3-chlorophenyl)-1-piperazinyl]propyl-5-ethyl-2,4-dihydro-4-(2-phenoxyethyl)-3H-1,2,4-triazol-3-one hydrochloride] |  |  | > 1000 | 160 | correlated best with their 5-HT2 blocking potencies | 10 | > 1000 |  |  |  |  |
| O=C1CC2(CCCC2)CC(=O)N1CCCCN1CCN(c2nsc3ccccc23)CC1 [Compound III, 8-[4-[4-(1,2-benzisotriazol-3-yl)-1-piperazinyl]butyl]-8-azaspiro[4,5]decane-7,9-dione hydrochloride] | 8.4 |  | 12.5 | 47 | correlated best with their 5-HT2 blocking potencies |  |  | 1.7 | 1 |  |  |
| O=C(c1ccc(F)cc1)C1CCN(CCn2c(=O)[nH]c3ccccc3c2=O)CC1 [ketanserin] |  |  |  |  |  |  |  |  |  | inhibited | antagonized |
| CN1C[C@@H](NS(=O)(=O)N(C)C)C[C@@H]2c3cccc4c3c(cn4C)C[C@H]21 [mesulergine] |  |  |  |  |  |  |  |  |  |  | antagonized |
